pIC50: −log10 of the molar value. Values after ≈ are worked out from the molar mass of the structure shown.
Key:
Staphylococcus aureus [1] = assay: Antimicrobial activity against methicillin- and quinolone-resistant Staphylococcus aureus ARC517; type: functional
[2] = Inhibition of Streptococcus pneumoniae thymidylate kinase
Streptococcus pneumoniae = assay: Antimicrobial activity against Streptococcus pneumoniae ARC548; type: functional
[3] = Distribution co-efficient, log D of the compound; conditions: octanol/water
[4] = Inhibition of Staphylococcus aureus thymidylate kinase
Staphylococcus aureus [5] = assay: Antimicrobial activity against methicillin- and quinolone-sensitive Staphylococcus aureus ARC516; type: functional
Cytochrome P450 2C9 = Cytochrome P450 2C9 (Homo sapiens, UniProt P11712); assay: Inhibition of CYP2C9 (unknown origin); type: ADME
Chain of Cytochrome P450 2C9 (P11712 whole entry): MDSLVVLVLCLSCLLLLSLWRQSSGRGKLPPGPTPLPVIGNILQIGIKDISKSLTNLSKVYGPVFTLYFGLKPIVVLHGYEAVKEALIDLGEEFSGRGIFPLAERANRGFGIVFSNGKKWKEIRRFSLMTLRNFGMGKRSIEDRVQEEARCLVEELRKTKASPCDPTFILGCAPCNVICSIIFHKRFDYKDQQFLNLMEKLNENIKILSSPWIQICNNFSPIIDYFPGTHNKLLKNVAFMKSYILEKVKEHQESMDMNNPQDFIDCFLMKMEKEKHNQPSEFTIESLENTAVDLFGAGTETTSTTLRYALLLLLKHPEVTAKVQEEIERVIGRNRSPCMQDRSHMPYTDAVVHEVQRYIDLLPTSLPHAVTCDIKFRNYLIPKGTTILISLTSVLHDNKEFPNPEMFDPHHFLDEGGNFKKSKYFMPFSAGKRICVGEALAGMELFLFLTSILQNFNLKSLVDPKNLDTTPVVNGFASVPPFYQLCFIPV

Enterococcus faecium = assay: Antimicrobial activity against linezolid-resistant Enterococcus faecium ARC1239; type: functional
[6] = Cytotoxicity against human A549 cells; type: cell-based; conditions: read-out: MIC
[7] = target: Voltage-gated inwardly rectifying potassium channel KCNH2 (Homo sapiens, UniProt Q12809); assay: Inhibition of human ERG
Chain of Voltage-gated inwardly rectifying potassium channel KCNH2 (Q12809 whole entry): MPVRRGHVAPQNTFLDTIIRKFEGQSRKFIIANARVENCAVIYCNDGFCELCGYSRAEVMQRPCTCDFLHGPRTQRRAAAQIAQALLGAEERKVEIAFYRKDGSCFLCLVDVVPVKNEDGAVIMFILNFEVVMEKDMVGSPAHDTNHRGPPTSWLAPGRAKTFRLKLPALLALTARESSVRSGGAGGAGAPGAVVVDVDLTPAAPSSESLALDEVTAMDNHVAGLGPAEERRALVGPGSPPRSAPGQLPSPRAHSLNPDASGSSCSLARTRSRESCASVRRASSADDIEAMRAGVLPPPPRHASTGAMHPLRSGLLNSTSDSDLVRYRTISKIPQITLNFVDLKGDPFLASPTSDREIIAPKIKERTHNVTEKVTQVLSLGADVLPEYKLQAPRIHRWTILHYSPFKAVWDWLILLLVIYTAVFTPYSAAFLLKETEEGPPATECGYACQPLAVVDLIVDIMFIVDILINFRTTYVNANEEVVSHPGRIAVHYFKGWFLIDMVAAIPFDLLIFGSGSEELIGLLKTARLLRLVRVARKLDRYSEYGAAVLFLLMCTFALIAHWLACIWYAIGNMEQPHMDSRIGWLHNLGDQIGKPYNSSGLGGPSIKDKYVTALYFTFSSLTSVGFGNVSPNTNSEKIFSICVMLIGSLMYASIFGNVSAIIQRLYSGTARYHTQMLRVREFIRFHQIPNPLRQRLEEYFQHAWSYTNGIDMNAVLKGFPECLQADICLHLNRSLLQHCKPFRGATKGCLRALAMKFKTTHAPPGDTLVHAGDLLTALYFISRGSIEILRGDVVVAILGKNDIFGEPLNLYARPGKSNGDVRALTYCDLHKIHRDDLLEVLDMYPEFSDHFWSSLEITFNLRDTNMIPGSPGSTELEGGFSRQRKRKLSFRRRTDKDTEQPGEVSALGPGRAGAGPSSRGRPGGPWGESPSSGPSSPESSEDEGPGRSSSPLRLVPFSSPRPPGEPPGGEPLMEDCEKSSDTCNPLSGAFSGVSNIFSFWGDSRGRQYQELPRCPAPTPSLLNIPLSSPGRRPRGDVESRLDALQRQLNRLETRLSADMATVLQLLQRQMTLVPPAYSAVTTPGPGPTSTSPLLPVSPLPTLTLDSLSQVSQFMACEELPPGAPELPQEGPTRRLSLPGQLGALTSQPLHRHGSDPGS

Thymidylate kinase = Thymidylate kinase (Homo sapiens, UniProt P23919); assay: Inhibition of human thymidylate kinase
Chain of Thymidylate kinase (P23919 whole entry): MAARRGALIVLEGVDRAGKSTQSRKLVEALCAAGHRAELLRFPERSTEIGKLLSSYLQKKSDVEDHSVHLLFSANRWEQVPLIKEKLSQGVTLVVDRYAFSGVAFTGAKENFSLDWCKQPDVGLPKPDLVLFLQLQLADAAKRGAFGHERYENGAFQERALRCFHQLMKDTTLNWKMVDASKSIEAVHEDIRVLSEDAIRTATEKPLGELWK

Plasma = assay: Unbound fraction in human plasma; type: ADME, cell-free
Streptococcus agalactiae = assay: Antimicrobial activity against Streptococcus agalactiae; type: functional
Enterococcus faecalis = assay: Antimicrobial activity against vancomycin-resistant Enterococcus faecalis ARC1618; type: functional
Cytochrome P450 2D6 = Cytochrome P450 2D6 (Homo sapiens, UniProt P10635); assay: Inhibition of CYP2D6 (unknown origin); type: ADME
Chain of Cytochrome P450 2D6 (P10635 whole entry): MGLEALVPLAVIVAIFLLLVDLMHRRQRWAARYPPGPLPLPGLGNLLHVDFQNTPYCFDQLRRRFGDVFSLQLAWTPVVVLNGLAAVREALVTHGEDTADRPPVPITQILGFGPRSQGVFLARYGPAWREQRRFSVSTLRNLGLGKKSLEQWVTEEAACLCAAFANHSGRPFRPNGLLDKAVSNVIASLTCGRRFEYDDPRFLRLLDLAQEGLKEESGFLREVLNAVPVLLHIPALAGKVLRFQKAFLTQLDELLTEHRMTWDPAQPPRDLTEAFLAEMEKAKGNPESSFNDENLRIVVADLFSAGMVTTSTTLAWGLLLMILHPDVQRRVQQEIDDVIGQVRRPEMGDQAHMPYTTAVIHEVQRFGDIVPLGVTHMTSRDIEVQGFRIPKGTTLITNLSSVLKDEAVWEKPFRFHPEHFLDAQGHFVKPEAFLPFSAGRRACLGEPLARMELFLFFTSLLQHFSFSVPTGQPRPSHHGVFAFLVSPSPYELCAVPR

Candida albicans = assay: Antimicrobial activity against Candida albicans; type: functional
Cytochrome P450 1A2 = Cytochrome P450 1A2 (Homo sapiens, UniProt P05177); assay: Inhibition of CYP1A2 (unknown origin); type: ADME
Chain of Cytochrome P450 1A2 (P05177 whole entry): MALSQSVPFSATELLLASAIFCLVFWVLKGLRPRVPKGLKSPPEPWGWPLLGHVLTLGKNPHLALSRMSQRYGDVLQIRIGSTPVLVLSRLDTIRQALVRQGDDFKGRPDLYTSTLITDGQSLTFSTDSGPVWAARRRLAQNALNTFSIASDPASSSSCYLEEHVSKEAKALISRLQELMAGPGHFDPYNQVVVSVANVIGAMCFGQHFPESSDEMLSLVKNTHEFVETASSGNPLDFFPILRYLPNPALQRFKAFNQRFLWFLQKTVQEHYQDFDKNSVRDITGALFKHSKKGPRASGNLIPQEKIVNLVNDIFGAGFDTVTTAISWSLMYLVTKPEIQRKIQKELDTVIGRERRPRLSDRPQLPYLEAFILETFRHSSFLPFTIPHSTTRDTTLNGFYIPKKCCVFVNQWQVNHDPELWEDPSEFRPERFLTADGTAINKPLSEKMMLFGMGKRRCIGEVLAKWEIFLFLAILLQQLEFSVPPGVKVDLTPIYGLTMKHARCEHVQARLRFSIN

Klebsiella pneumoniae = assay: Antimicrobial activity against Klebsiella pneumoniae ARC1865; type: functional
[8] = Intrinsic clearance in rat liver microsomes; type: ADME, Microsome; conditions: read-out: CLH
Cytochrome P450 2C19 = Cytochrome P450 2C19 (Homo sapiens, UniProt P33261); assay: Inhibition of CYP2C19 (unknown origin); type: ADME
Chain of Cytochrome P450 2C19 (P33261 whole entry): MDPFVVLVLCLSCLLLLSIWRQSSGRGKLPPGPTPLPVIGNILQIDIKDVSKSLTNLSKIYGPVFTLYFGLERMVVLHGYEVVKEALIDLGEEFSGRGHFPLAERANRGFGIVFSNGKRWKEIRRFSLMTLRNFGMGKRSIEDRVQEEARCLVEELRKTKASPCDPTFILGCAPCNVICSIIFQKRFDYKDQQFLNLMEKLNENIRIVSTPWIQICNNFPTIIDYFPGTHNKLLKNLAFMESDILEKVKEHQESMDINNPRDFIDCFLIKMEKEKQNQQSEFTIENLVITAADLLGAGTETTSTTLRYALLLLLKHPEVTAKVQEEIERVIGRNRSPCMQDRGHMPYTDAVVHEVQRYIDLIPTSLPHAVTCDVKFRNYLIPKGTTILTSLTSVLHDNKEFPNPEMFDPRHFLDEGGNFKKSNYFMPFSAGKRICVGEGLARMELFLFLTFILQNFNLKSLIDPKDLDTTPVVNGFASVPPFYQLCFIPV

[9] = test system: Staphylococcus epidermidis; assay: Antimicrobial activity against Staphylococcus epidermidis ARC323; type: functional
Haemophilus influenzae = assay: Antimicrobial activity against Haemophilus influenzae ARC446; type: functional
Escherichia coli = assay: Antimicrobial activity against Escherichia coli ARC523; type: functional
[10] = test system: Staphylococcus haemolyticus; assay: Antimicrobial activity against Staphylococcus haemolyticus; type: functional
Cytochrome P450 3A4 = Cytochrome P450 3A4 (Homo sapiens, UniProt P08684); assay: Inhibition of CYP3A4 (unknown origin); type: ADME
Chain of Cytochrome P450 3A4 (P08684 whole entry): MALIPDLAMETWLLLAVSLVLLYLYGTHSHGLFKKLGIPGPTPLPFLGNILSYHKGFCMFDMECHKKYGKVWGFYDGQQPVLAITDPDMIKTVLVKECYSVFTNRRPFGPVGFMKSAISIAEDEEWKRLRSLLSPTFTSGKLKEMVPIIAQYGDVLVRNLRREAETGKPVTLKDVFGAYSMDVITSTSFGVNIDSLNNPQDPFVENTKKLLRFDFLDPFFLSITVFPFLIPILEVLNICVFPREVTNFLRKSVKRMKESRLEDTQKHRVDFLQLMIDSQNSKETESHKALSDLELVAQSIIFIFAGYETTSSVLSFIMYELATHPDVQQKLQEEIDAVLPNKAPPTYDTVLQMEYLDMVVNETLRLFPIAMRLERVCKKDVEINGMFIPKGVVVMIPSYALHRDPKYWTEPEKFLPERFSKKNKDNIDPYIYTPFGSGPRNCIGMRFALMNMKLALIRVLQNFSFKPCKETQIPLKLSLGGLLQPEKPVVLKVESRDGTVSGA

Streptococcus pyogenes = assay: Antimicrobial activity against Streptococcus pyogenes ARC838; type: functional
[11] = Equilibrium solubility of the compound at pH 7.4; type: physicochemical; conditions: buffer
[12] = test system: Staphylococcus lugdunensis; assay: Antimicrobial activity against Staphylococcus lugdunensis; type: functional
Pseudomonas aeruginosa = assay: Antimicrobial activity against Pseudomonas aeruginosa ARC545; type: functional
[13] = Intrinsic clearance in rat hepatocytes assessed per million cells; type: ADME, cell-based, Hepatocyte; conditions: read-out: CLH
[14] = Inhibition of Escherichia coli thymidylate kinase
[15] = Cytotoxicity against sheep erythrocytes assessed hemolysis; type: cell-based, Ovis aries; conditions: erythrocyte

In the case of Cc1cn([C@H]2CCCN(S(=O)(=O)c3ccc(C(=O)O)c(Oc4cccc(Cl)c4)c3)C2)c(=O)[nH]c1=O, the MIC (Staphylococcus aureus [1]) was greater than 64 µg/mL, the pIC50 [2] was 9.00 and the MIC (Streptococcus pneumoniae) was 2 µg/mL (≈ 3.85 µM). It also gave a logD [3] of -1.3, a pIC50 [4] of 8.70 and an MIC (Staphylococcus aureus [5]) greater than 64 µg/mL.
Cc1cn([C@H]2CCCN(S(=O)(=O)c3ccc(O)c(Oc4ccc(Cl)cc4)c3)C2)c(=O)[nH]c1=O showed an MIC (Staphylococcus aureus [1]) of 2 µg/mL (≈ 4.07 µM), a pIC50 [2] of 8.10 and an MIC (Streptococcus pneumoniae) of 0.5 µg/mL (≈ 1.02 µM). The logD [3] was 2.1, the pIC50 [4] was 7.74 and the MIC (Staphylococcus aureus [5]) was 1 µg/mL (≈ 2.03 µM).
For Cc1cn([C@H]2CCCN(S(=O)(=O)c3cccc(Oc4ccc(Cl)c(Cl)c4)c3)C2)c(=O)[nH]c1=O, the MIC (Staphylococcus aureus [1]) was 4 µg/mL (≈ 7.84 µM), the pIC50 [2] was 6.53 and the MIC (Streptococcus pneumoniae) was 4 µg/mL (≈ 7.84 µM). It also gave a logD [3] greater than 3.5, a pIC50 [4] of 5.56 and an MIC (Staphylococcus aureus [5]) of 4 µg/mL (≈ 7.84 µM).
Compound Cc1cn([C@H]2CCCN(S(=O)(=O)c3ccc(O)c(Oc4cccc(C(F)(F)F)c4)c3)C2)c(=O)[nH]c1=O has an MIC (Staphylococcus aureus [1]) of 2 µg/mL (≈ 3.81 µM), a pIC50 [2] of 8.52 and an MIC (Streptococcus pneumoniae) of 0.1 µg/mL (≈ 0.19 µM). It also gave a logD [3] of 2.3, a pIC50 [4] of 7.19 and an MIC (Staphylococcus aureus [5]) of 2 µg/mL (≈ 3.81 µM).
With Cc1cn([C@H]2CCCN(S(=O)(=O)c3ccc(C(N)=O)c(Oc4cccc(Cl)c4)c3)C2)c(=O)[nH]c1=O the MIC (Staphylococcus aureus [1]) was greater than 64 µg/mL, the pIC50 [2] was 8.00 and the MIC (Streptococcus pneumoniae) was 2 µg/mL (≈ 3.85 µM). For the same compound, the logD [3] was 2, the pIC50 [4] was 6.11 and the MIC (Staphylococcus aureus [5]) was greater than 64 µg/mL.
Cc1cn([C@H]2CCCN(S(=O)(=O)c3ccc(C(=O)O)c(Oc4ccc(Cl)c(Cl)c4)c3)C2)c(=O)[nH]c1=O gave an MIC (Staphylococcus aureus [1]) greater than 64 µg/mL, a pIC50 [2] greater than 8.22 and an MIC (Streptococcus pneumoniae) of 4 µg/mL (≈ 7.21 µM). It also gave a logD [3] of -0.9, a pIC50 [4] of 7.64 and an MIC (Staphylococcus aureus [5]) greater than 64 µg/mL.
Compound Cc1cn([C@H]2CCCN(S(=O)(=O)c3ccc(O)c(Oc4cccc(Cl)c4)c3)C2)c(=O)[nH]c1=O has an MIC (Staphylococcus aureus [1]) of 0.5 µg/mL (≈ 1.02 µM), an MIC90 (Staphylococcus aureus [1]) of 0.5 µg/mL (≈ 1.02 µM) and a pIC50 (Cytochrome P450 2C9) of less than 4.70. The MIC (Enterococcus faecium) was 0.13 µg/mL (≈ 0.264 µM), the MCC [6] was greater than 64 µg/mL and the pIC50 [7] was 4.57. The pIC50 (Thymidylate kinase) was less than 3.70, the Fu (Plasma) was 1% and the MIC (Streptococcus agalactiae) was 0.5 µg/mL (≈ 1.02 µM). It also gave an MIC (Enterococcus faecalis) of 0.5 µg/mL (≈ 1.02 µM), a pIC50 (Cytochrome P450 2D6) of less than 4.70 and an MIC (Candida albicans) greater than 64 µg/mL. The pIC50 (Cytochrome P450 1A2) was less than 4.70, the MIC (Klebsiella pneumoniae) was greater than 64 µg/mL and the microsomal CLint [8] was 27 µL/min/mg. The pIC50 (Cytochrome P450 2C19) was less than 4.70, the MIC (Streptococcus pneumoniae) was 0.03 µg/mL (≈ 0.061 µM) and the MIC90 (Streptococcus pneumoniae) was 0.06 µg/mL (≈ 0.122 µM). It also gave a logD [3] of 2.1, an MIC [9] of 2 µg/mL (≈ 4.07 µM) and an MIC (Haemophilus influenzae) greater than 64 µg/mL. For the same compound, the MIC (Escherichia coli) was greater than 64 µg/mL, the MIC [10] was 0.03 µg/mL (≈ 0.061 µM) and the MIC (Staphylococcus aureus [5]) was 0.25 µg/mL (≈ 0.508 µM). For the same compound, the pIC50 (Cytochrome P450 3A4) was less than 4.70, the MIC90 (Streptococcus pyogenes) was 0.5 µg/mL (≈ 1.02 µM) and the solubility thermodynamic [11] was 193 µM (≈ 94.9 µg/mL). For the same compound, the MIC [12] was 0.016 µg/mL (≈ 0.0325 µM), the MIC (Pseudomonas aeruginosa) was greater than 64 µg/mL and the hepatocyte CLint [13] was 45 µL/min/1e6 cells. It also gave a pIC50 [14] of 5.35 and an MIC [15] greater than 64 µg/mL.
For Cc1cn([C@H]2CCCN(S(=O)(=O)c3ccc(O)c(Oc4cc(F)cc(Cl)c4)c3)C2)c(=O)[nH]c1=O, the MIC (Staphylococcus aureus [1]) was 1 µg/mL (≈ 1.96 µM), the pIC50 [2] was 9.15 and the MIC (Streptococcus pneumoniae) was 0.05 µg/mL (≈ 0.0981 µM). It also gave a pIC50 [4] of 7.92 and an MIC (Staphylococcus aureus [5]) of 1 µg/mL (≈ 1.96 µM).
For Cc1cn([C@H]2CCCN(S(=O)(=O)c3ccc(O)c(Oc4ccccc4)c3)C2)c(=O)[nH]c1=O, the MIC (Staphylococcus aureus [1]) was 16 µg/mL (≈ 35 µM), the pIC50 [2] was 7.85 and the MIC (Streptococcus pneumoniae) was 0.5 µg/mL (≈ 1.09 µM). The logD [3] was 1.5, the pIC50 [4] was 6.59 and the MIC (Staphylococcus aureus [5]) was 16 µg/mL (≈ 35 µM).
For C[C@H]1COc2c(N3CCN(C)CC3)c(F)cc3c(=O)c(C(=O)O)cn1c23.C[C@H]1COc2c(N3CCN(C)CC3)c(F)cc3c(=O)c(C(=O)O)cn1c23.O [LEVOFLOXACIN], the MIC90 (Staphylococcus aureus [1]) was 16 µg/mL and the MIC (Streptococcus pyogenes) was 0.25 µg/mL.
For Cc1cn([C@H]2CCCN(S(=O)(=O)c3ccc(O)c(Oc4cccc(Br)c4)c3)C2)c(=O)[nH]c1=O, the MIC (Staphylococcus aureus [1]) was 0.5 µg/mL (≈ 0.932 µM), the pIC50 [2] was 9.15 and the MIC (Streptococcus pneumoniae) was 0.1 µg/mL (≈ 0.186 µM). The logD [3] was 2.3, the pIC50 [4] was 8.70 and the MIC (Staphylococcus aureus [5]) was 1 µg/mL (≈ 1.86 µM).
Cc1cn([C@H]2CCCN(S(=O)(=O)c3ccc(O)c(Oc4cccc(F)c4)c3)C2)c(=O)[nH]c1=O gave an MIC (Staphylococcus aureus [1]) of 16 µg/mL (≈ 33.6 µM), a pIC50 [2] of 8.40 and an MIC (Streptococcus pneumoniae) of 0.25 µg/mL (≈ 0.526 µM). For the same compound, the logD [3] was 1.6, the pIC50 [4] was 7.24 and the MIC (Staphylococcus aureus [5]) was 16 µg/mL (≈ 33.6 µM).
With Cc1cccc(Oc2cc(S(=O)(=O)N3CCC[C@H](n4cc(C)c(=O)[nH]c4=O)C3)ccc2C(=O)O)c1 the MIC (Staphylococcus aureus [1]) was greater than 64 µg/mL, the pIC50 [2] was 8.22 and the MIC (Streptococcus pneumoniae) was 16 µg/mL (≈ 32 µM). For the same compound, the logD [3] was -1.6 and the MIC (Staphylococcus aureus [5]) was greater than 64 µg/mL.
Cc1cn([C@H]2CCCN(S(=O)(=O)c3cccc(Oc4ccccc4)c3)C2)c(=O)[nH]c1=O showed a pIC50 [2] of 4.68, an MIC (Streptococcus pneumoniae) greater than 64 µg/mL and a pIC50 [4] of 4.09. For the same compound, the MIC (Staphylococcus aureus [5]) was greater than 64 µg/mL.
Compound Cc1cc(Oc2cc(S(=O)(=O)N3CCC[C@H](n4cc(C)c(=O)[nH]c4=O)C3)ccc2O)ccc1Cl has an MIC (Staphylococcus aureus [1]) of 0.5 µg/mL (≈ 0.988 µM), a pIC50 [2] of 7.74 and an MIC (Streptococcus pneumoniae) of 0.25 µg/mL (≈ 0.494 µM). The logD [3] was 2.4, the pIC50 [4] was 8.52 and the MIC (Staphylococcus aureus [5]) was 1 µg/mL (≈ 1.98 µM).
Compound Cc1cn([C@H]2CCCN(S(=O)(=O)c3ccc(C#N)c(Oc4cccc(Cl)c4)c3)C2)c(=O)[nH]c1=O has an MIC (Staphylococcus aureus [1]) greater than 64 µg/mL, a pIC50 [2] of 7.64 and an MIC (Streptococcus pneumoniae) of 2 µg/mL (≈ 3.99 µM). It also gave a logD [3] of 1, a pIC50 [4] of 6.28 and an MIC (Staphylococcus aureus [5]) greater than 64 µg/mL.
COc1ccc(S(=O)(=O)N2CCC[C@H](n3cc(C)c(=O)[nH]c3=O)C2)cc1Oc1cccc(Cl)c1 gave an MIC (Staphylococcus aureus [1]) of 16 µg/mL (≈ 31.6 µM), a pIC50 [2] of 8.22 and an MIC (Streptococcus pneumoniae) of 2 µg/mL (≈ 3.95 µM). For the same compound, the pIC50 [4] was 6.45 and the MIC (Staphylococcus aureus [5]) was greater than 64 µg/mL.
For Cc1cn([C@H]2CCCN(S(=O)(=O)c3ccc(CO)c(Oc4cccc(Cl)c4)c3)C2)c(=O)[nH]c1=O, the MIC (Staphylococcus aureus [1]) was 64 µg/mL (≈ 126 µM), the pIC50 [2] was 7.55 and the MIC (Streptococcus pneumoniae) was 2 µg/mL (≈ 3.95 µM). For the same compound, the pIC50 [4] was 6.21 and the MIC (Staphylococcus aureus [5]) was 32 µg/mL (≈ 63.2 µM).

— ChEMBL document CHEMBL2331361, “Sulfonylpiperidines as novel, antibacterial inhibitors of Gram-positive thymidylate kinase (TMK)” (Bioorg Med Chem Lett, 2013)
